Read-outs that look alike come from different tables or passages of the source.

The nature of one data set: MTT cytotoxicity assay. The class given is cell-based. The conditions noted are these: African green monkey. How it is done:
(§1) Half of the maximal cytotoxic concentrations (CC50) were assessed to obtain the exact concentration of a compound that caused a rupture to 50% of cells after being treated with variant doses from the compounds to calculate the safety index (SI) = CC50/IC50 for each compound. The assay was performed through stock solution preparation of the target compounds in DMSO/ddH2O (for those in powder form). However, those in solution form were used directly. The prepared solutions were further diluted with DMEM by attaining the working solutions. […] Shortly, 96 well-plates were utilized for cell seeding and incubated at 37 °C in 5% CO2 for 24 h afterward. After one day, the incubated cells were subjected to different concentrations in triplicates of the investigated compounds. After another 24 h, the supernatant was dismissed, and sterile 1x phosphate buffer saline (PBS) was used for cell monolayer washing in triplicates. Thus, 20 µL of 5 mg/mL stock solution was added to each well and then incubated at 37 °C, followed by a medium aspiration for 4 h. So, the formed formazan crystals were dissolved by 200 µL isopropyl alcohol or DMSO. The formazan solution absorbance was measured at 540 nm (λmax) using a multi-well plate reader, while the reference wavelength was 620 nm. The CC50 of each target compound was measured employing nonlinear regression analysis of GraphPad Prism software.

For data set [1], the system named is SARS-CoV-2 (hCoV-19/Egypt/NRC-03/2020). As to the kind of experiment: Crystal violet assay, SARS-CoV-2 inhibitory assay (cell-based). The conditions noted are these: Vero E6 cells, crystal violet CPE readout, read-out: Inhibitory Concentration (IC50) against SARS-CoV-2.
A further data set concerns the target T1, SARS-CoV-2 M^pro enzyme (Severe acute respiratory syndrome coronavirus 2, UniProt P0DTD1).
T1 construct: The 3CL Protease Assay Kit was used; purchased
As to the kind of experiment: SARS-CoV-2 M^pro inhibitory assay (3CL Protease Assay Kit). Type of data set: biochemical.

The subject of the next data set is Vero E6 cells. As to the kind of experiment: MTT cytotoxicity assay. The class given is cell-based. The settings on record: Vero E6 cells, MTT, 24 h treatment; read-out: Cytotoxicity Concentration (CC50). On the procedure: as §1
The mark [2] stands for this setting: Severe acute respiratory syndrome coronavirus 2, Vero C1008, 72 h.
[3] abbreviates: fluorogenic substrate, triplicate.

For the compound `[H]/N=C(/N)c1ccc(NCc2nc3cc(C(=O)N(CCC(=O)O)c4ccccn4)ccc3n2C)cc1` [Dabigatran, dabigatran], in the data set “MTT cytotoxicity assay” (Vero E6 cells, MTT, 24 h treatment, read-out: Cytotoxicity Concentration (CC50)), the CC50 at 24 h is 142 µM. Besides, the values for the IC50 (in data set [1] (setting [2]); in data set [1] (72 h); on SARS-CoV-2 M^pro enzyme (setting [3])) were 9.45 µM, 9.4 µM and 10.6 µM, respectively.

As to `CO[C@H]1O[C@H](COS(=O)(=O)O)[C@@H](O[C@@H]2O[C@@H](C(=O)O)[C@@H](O[C@H]3O[C@H](COS(=O)(=O)O)[C@@H](O[C@@H]4O[C@H](C(=O)O)[C@@H](O[C@H]5O[C@H](COS(=O)(=O)O)[C@@H](O)[C@H](O)[C@H]5NS(=O)(=O)O)[C@H](O)[C@H]4O)[C@H](OS(=O)(=O)O)[C@H]3NS(=O)(=O)O)[C@H](O)[C@H]2OS(=O)(=O)O)[C@H](O)[C@H]1NS(=O)(=O)O` [Fondaparinux sodium, fondaparinux sodium], in the data set “MTT cytotoxicity assay”, the CC50 at 24 h was determined as 152 µM. For the same compound, the results for the IC50 (in data set [1] (setting [2]); in data set [1] (72 h); at SARS-CoV-2 M^pro enzyme (setting [3])) were 8.69 µM, 8.6 µM and 2.36 µM, respectively.

As for `CCCSc1nc(N[C@@H]2C[C@H]2c2ccc(F)c(F)c2)c2nnn([C@@H]3C[C@H](OCCO)[C@@H](O)[C@H]3O)c2n1` [Ticagrelor, ticagrelor], the CC50 at 24 h in the data set “MTT cytotoxicity assay” is 142 µM. Also, the IC50 in data set [1] (setting [2]) was found to be 5.6 µM; on SARS-CoV-2 M^pro enzyme (setting [3]), 47.5 µM.

`CCC[C@@]1(CCc2ccccc2)CC(O)=C([C@H](CC)c2cccc(NS(=O)(=O)c3ccc(C(F)(F)F)cn3)c2)C(=O)O1` [tipranavir] came in with an IC50 on SARS-CoV-2 M^pro enzyme (setting [3]) of 7.38 µM.

With heparin, the CC50 with Vero E6 cells is 262 µM. For the same compound, the IC50 in data set [1] (72 h) is 106 µM; at SARS-CoV-2 M^pro enzyme (read-out: SARS-CoV-2 M^pro IC50, fluorogenic substrate, triplicate) it was 153 µM.

The record behind these values is PMC9603561, “Anticoagulants as Potential SARS-CoV-2 M^pro Inhibitors for COVID-19 Patients: In Vitro, Molecular Docking, Molecular Dynamics, DFT, and SAR Studies” (International Journal of Molecular Sciences, 2022).
